Reference: ChEMBL document CHEMBL1201862, “PubChem BioAssay data set” (2004)
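All cell lines were grown in 96-well plates and treated with compound for 48 hours. The concentration for 50% growth inhibition is given as GI50.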 Active and inactive are the calls of the source. Cut-off read from the data, not from the text of the source: active = GI50 up to about 1.1 µM and inactive = higher.

Experiments:
Assay in all cases: NCI-60 cell line screen, 48 h
UACC-62 = tested on: UACC-62
EKVX = tested on: EKVX
COLO 205 = tested on: COLO 205
Malme-3M = tested on: Malme-3M
HCC 2998 = tested on: HCC 2998
MOLT-4 = tested on: MOLT-4
SK-OV-3 = tested on: SK-OV-3
K562 = tested on: K562
HOP-18 = tested on: HOP-18
SNB-75 = tested on: SNB-75
HCT-15 = tested on: HCT-15
SK-MEL-5 = tested on: SK-MEL-5
786-0 = tested on: 786-0
NCI-H460 = tested on: NCI-H460
DMS-114 = tested on: DMS-114
CCRF-CEM = tested on: CCRF-CEM
OVCAR-8 = tested on: OVCAR-8
RXF 393 = tested on: RXF 393
OVCAR-5 = tested on: OVCAR-5
LXFL 529 = tested on: LXFL 529
XF498 = tested on: XF498
DMS-273 = tested on: DMS-273
ACHN = tested on: ACHN
SK-MEL-28 = tested on: SK-MEL-28
NCI-H522 = tested on: NCI-H522
HOP-62 = tested on: HOP-62
SN12C = tested on: SN12C
HOP-92 = tested on: HOP-92
SNB-19 = tested on: SNB-19
TK-10 = tested on: TK-10
SK-MEL-2 = tested on: SK-MEL-2
A498 = tested on: A498
A549 = tested on: A549
M14 = tested on: M14
UACC-257 = tested on: UACC-257
RPMI-8226 = tested on: RPMI-8226
HCT-116 = tested on: HCT-116
RXF 631 = tested on: RXF 631
OVCAR-4 = tested on: OVCAR-4
SNB-78 = tested on: SNB-78
CAKI-1 = tested on: CAKI-1
M19-MEL = tested on: M19-MEL
SW-620 = tested on: SW-620
U-251 = tested on: U-251
NCI-H226 = tested on: NCI-H226
OVCAR-3 = tested on: OVCAR-3
SF-539 = tested on: SF-539
KM-20L2 = tested on: KM-20L2
SF-295 = tested on: SF-295
IGROV-1 = tested on: IGROV-1
LOX IMVI = tested on: LOX IMVI
HT-29 = tested on: HT-29
NCI-H23 = tested on: NCI-H23
UO-31 = tested on: UO-31
SR = tested on: SR
SF-268 = tested on: SF-268
HL-60 = tested on: HL-60
KM12 = tested on: KM12
DLD-1 = tested on: DLD-1

CC(=O)c1ccc(-c2ccc(C(C)=O)s2)s1
GI50 (UACC-62): > 100 µM (inactive) | GI50 (EKVX): > 100 µM (inactive) | GI50 (COLO 205): > 100 µM (inactive) | GI50 (Malme-3M): > 100 µM (inactive) | GI50 (HCC 2998): > 100 µM (inactive) | GI50 (MOLT-4): > 100 µM (inactive) | GI50 (SK-OV-3): > 100 µM (inactive) | GI50 (K562): > 100 µM (inactive) | GI50 (HOP-18): > 100 µM (inactive) | GI50 (SNB-75): > 100 µM (inactive) | GI50 (HCT-15): > 100 µM | GI50 (SK-MEL-5): > 100 µM (inactive) | GI50 (786-0): > 100 µM (inactive) | GI50 (NCI-H460): > 100 µM (inactive) | GI50 (DMS-114): 1.43 µM (inactive) | GI50 (CCRF-CEM): > 100 µM (inactive) | GI50 (OVCAR-8): > 100 µM (inactive) | GI50 (RXF 393): > 100 µM (inactive) | GI50 (OVCAR-5): > 100 µM (inactive) | GI50 (LXFL 529): > 100 µM (inactive) | GI50 (XF498): > 100 µM (inactive) | GI50 (DMS-273): > 100 µM (inactive) | GI50 (ACHN): > 100 µM (inactive) | GI50 (SK-MEL-28): 1.81 µM (inactive) | GI50 (NCI-H522): > 100 µM (inactive) | GI50 (HOP-62): > 100 µM (inactive) | GI50 (SN12C): > 100 µM (inactive) | GI50 (HOP-92): > 100 µM (inactive) | GI50 (SNB-19): > 100 µM (inactive) | GI50 (TK-10): > 100 µM (inactive) | GI50 (SK-MEL-2): > 100 µM (inactive) | GI50 (A498): 1.94 µM (inactive) | GI50 (A549): > 100 µM (inactive) | GI50 (M14): > 100 µM (inactive) | GI50 (UACC-257): > 100 µM (inactive) | GI50 (RPMI-8226): > 100 µM (inactive) | GI50 (HCT-116): > 100 µM (inactive) | GI50 (RXF 631): > 100 µM (inactive) | GI50 (OVCAR-4): > 100 µM (inactive) | GI50 (SNB-78): > 100 µM (inactive) | GI50 (CAKI-1): > 100 µM (inactive) | GI50 (M19-MEL): > 100 µM (inactive) | GI50 (SW-620): > 100 µM (inactive) | GI50 (U-251): > 100 µM (inactive) | GI50 (NCI-H226): 19 µM (inactive) | GI50 (OVCAR-3): > 100 µM (inactive) | GI50 (SF-539): > 100 µM (inactive) | GI50 (KM-20L2): > 100 µM (inactive) | GI50 (SF-295): > 100 µM (inactive) | GI50 (IGROV-1): > 100 µM (inactive) | GI50 (LOX IMVI): > 100 µM (inactive) | GI50 (HT-29): > 100 µM (inactive) | GI50 (NCI-H23): > 100 µM (inactive) | GI50 (UO-31): > 100 µM (inactive) | GI50 (SR): > 100 µM (inactive) | GI50 (SF-268): 1.87 µM (inactive) | GI50 (HL-60): > 100 µM (inactive) | GI50 (KM12): > 100 µM (inactive) | GI50 (DLD-1): > 100 µM (inactive)

Nc1nc2c(c(=O)[n-]1)[n+](CCO)cn2C1OC(CO)C(O)C1O (centres undefined)
GI50 (UACC-62): > 100 µM (inactive) | GI50 (EKVX): > 100 µM (inactive) | GI50 (COLO 205): > 100 µM (inactive) | GI50 (Malme-3M): > 100 µM (inactive) | GI50 (SK-OV-3): > 100 µM (inactive) | GI50 (K562): > 100 µM (inactive) | GI50 (HOP-18): > 100 µM (inactive) | GI50 (SNB-75): > 100 µM (inactive) | GI50 (HCT-15): > 100 µM | GI50 (SK-MEL-5): > 100 µM (inactive) | GI50 (786-0): > 100 µM (inactive) | GI50 (NCI-H460): > 100 µM (inactive) | GI50 (DMS-114): > 100 µM (inactive) | GI50 (CCRF-CEM): > 100 µM (inactive) | GI50 (OVCAR-8): > 100 µM (inactive) | GI50 (RXF 393): > 100 µM (inactive) | GI50 (OVCAR-5): > 100 µM (inactive) | GI50 (LXFL 529): > 100 µM (inactive) | GI50 (XF498): > 100 µM (inactive) | GI50 (DMS-273): > 100 µM (inactive) | GI50 (ACHN): > 100 µM (inactive) | GI50 (SK-MEL-28): > 100 µM (inactive) | GI50 (NCI-H522): > 100 µM (inactive) | GI50 (HOP-62): > 100 µM (inactive) | GI50 (SN12C): > 100 µM (inactive) | GI50 (HOP-92): > 100 µM (inactive) | GI50 (TK-10): > 100 µM (inactive) | GI50 (SK-MEL-2): > 100 µM (inactive) | GI50 (A498): > 100 µM (inactive) | GI50 (A549): > 100 µM (inactive) | GI50 (M14): > 100 µM (inactive) | GI50 (UACC-257): > 100 µM (inactive) | GI50 (RPMI-8226): > 100 µM (inactive) | GI50 (HCT-116): > 100 µM (inactive) | GI50 (RXF 631): > 100 µM (inactive) | GI50 (OVCAR-4): > 100 µM (inactive) | GI50 (SNB-78): > 100 µM (inactive) | GI50 (CAKI-1): > 100 µM (inactive) | GI50 (M19-MEL): > 100 µM (inactive) | GI50 (SW-620): > 100 µM (inactive) | GI50 (U-251): > 100 µM (inactive) | GI50 (NCI-H226): > 100 µM (inactive) | GI50 (OVCAR-3): > 100 µM (inactive) | GI50 (SF-539): > 100 µM (inactive) | GI50 (KM-20L2): > 100 µM (inactive) | GI50 (SF-295): > 100 µM (inactive) | GI50 (IGROV-1): > 100 µM (inactive) | GI50 (LOX IMVI): > 100 µM (inactive) | GI50 (HT-29): > 100 µM (inactive) | GI50 (UO-31): > 100 µM (inactive) | GI50 (SR): > 100 µM (inactive) | GI50 (SF-268): > 100 µM (inactive) | GI50 (HL-60): > 100 µM (inactive) | GI50 (KM12): > 100 µM (inactive) | GI50 (DLD-1): > 100 µM (inactive)
